Measured values reported in ChEMBL document CHEMBL3392922, “MMV box screening in the Dd2 P. falciparum strain”.
pIC50: −log10 of the molar value.

system: Plasmodium falciparum; experiment: MMV: IC50 determined against P. falciparum Dd2-luc strain using a Malaria Sybr Green I Fluorescence assay. Starting conditions were 1% trophozoite synchronised parasites at 2% haematocrit. Fluorescence detection completed after 48hr incubation at 37 degrees C under 1% O2, 3% CO2 and balance N2.; type: functional, organism-based; details: Dd2, 48 h

Compound | pIC50
OC(CNCC1CCCO1)Cn1c2ccc(Cl)cc2c2cc(Cl)ccc21 (configuration not stated) | 6.13
COc1cccc(C2(C)Nc3ccccc3-c3nc4ccccc4n32)c1 (configuration not stated) | 5.85
CC(C)CNC(=O)c1c(N)n(CCc2ccccc2F)c2nc3ccccc3nc12 | 6.17
CC(C)(C)CC(C)(C)NCC(O)COc1ccc(Cl)cc1Cl (configuration not stated) | 6.31
Cc1cccc(-n2ncc3c(O)nc(-n4nc(C)cc4NC(=O)c4cc5ccccc5o4)nc32)c1 | 6.00
N=c1n(CCN2CCCCC2)c2ccccc2n1CC(O)c1cccc(Br)c1 (configuration not stated) | 5.96
COc1cccc(O)c1CN1CCC2(CCCN(Cc3ccc(F)cc3)C2)C1 (configuration not stated) | 6.30
CCOC(=O)C1=C(C)N=c2sc(=Cc3ccccc3O)c(=O)n2C1c1ccc(OC)c2ccccc12 (configuration not stated) | 5.82
Cc1ccc(-c2cc(C(=O)Nc3ccc(S(=O)(=O)N4CCCCC4)cc3)[nH]n2)c(O)c1 | 5.63
FC(F)(F)c1cccc(Nc2nc3ccccc3nc2Nc2cccc(C(F)(F)F)c2)c1 | 6.13
FC(F)(F)c1ccc(Nc2nnnc3ccccc23)cc1 | 5.40
c1ccc(-c2ccc(-c3nc4ccccc4[nH]3)cc2)cc1 | 5.70
COc1cccc(NC(=O)[C@H](C(C)C)n2c(=O)[nH]c3ccccc3c2=O)c1 | 6.80
O=c1nc(C=Cc2ccc(Br)cc2)oc2ccccc12 | 5.23
COc1ccc2nc(N)nc(C)c2c1 | 5.73
COc1cccc(NC(=O)Cn2c(C)c(C#N)c3ccccc32)c1 | 5.90
COCCNC(=O)c1ccc(OC2CCN(Cc3ccc(F)c(F)c3)CC2)c(Cl)c1 | 6.12
COc1ccc(CNC(=O)c2cc3c(=O)n4ccccc4nc3n(CCc3ccccc3)c2=N)cc1 | 5.91
O=C(NC1CCCC1)c1ccc(N2CCC(NCc3cccc(C(F)(F)F)c3)CC2)cc1 | 6.33
O=C(CCc1ccco1)NC1CCN(CC2(c3ccc(Cl)cc3)CCC2)CC1 | 5.99
Cn1c(=O)n(C)c2cc(CNCCNc3ccnc4cc(Cl)ccc34)ccc21 | 6.71
COCCN(C(=O)Cc1cccs1)C(C(=O)NCc1ccc(OC)cc1)c1ccc(C(C)C)cc1 (configuration not stated) | 6.01
O=c1cc(NC2CCN(CCCc3ccccc3)CC2)c2cc(Cl)ccc2o1 | 6.27

More lines, in order of rising pIC50, values ahead:

pIC50 | Compound
5.41 | O=C(Nc1ccc(Cl)c(Cl)c1)Nc1ccc(Cl)c(Cl)c1
5.50 | COc1ccc(CCN2C(=O)c3[nH]nc(-c4cc(Cl)c(C)cc4O)c3C2c2ccccc2F)cc1 (configuration not stated)
5.57 | COc1ccc(CCN2CCC(CN(C)Cc3cnn(-c4ccccc4)c3)CC2)cc1
5.61 | Cc1ccc(OCCCCCCNCCO)c(C)c1
5.70 | CC(=O)c1sc(NC(=O)Nc2ccc(C)cc2C)nc1C
5.74 | Nc1ccc(-c2nc3cc(Cc4ccc5[nH]c(-c6ccc(N)cc6)nc5c4)ccc3[nH]2)cc1
5.77 | CC(=O)c1ccc(NC(=O)CSc2nc(-c3ccccc3Cl)ns2)cc1
5.84 | CCOc1cc(Br)c(C(C)NC(=O)c2cccc(OC)c2)cc1OCC (configuration not stated)
5.90 | Cc1ccc(-c2cc3c(nn2)-c2ccccc2C3=O)cc1
5.91 | Cc1cc(Nc2ccc(C)c(Cl)c2)n2nc(C(F)(F)F)nc2n1
5.91 | CC(C)=CCN1CCC(C(=O)Nc2ccc(-c3nc4ccccc4[nH]3)cc2)CC1
5.93 | COc1ccc(CNC2CCN(c3ccc(NC(=O)c4cccc(Cl)c4)cc3)CC2)cc1OC
5.93 | CN1CCN(c2ncnc3c2[nH]c2ccc(Cl)cc23)CC1
5.94 | COc1cccc(Cn2c(Oc3ccccc3)nc3c2c(=O)n(C)c(=O)n3C)c1
6.05 | CCCCNc1nc(NC(C)(C)C)nc(NC(C)(C)C)n1
6.05 | FC(F)(F)c1cccc(Nc2nc(-c3ccccc3)nc3ncccc23)c1
6.14 | COc1ccc(-c2cc3c(nn2)-c2ccccc2C3=O)cc1

pIC50 | Compound
6.19 | CCOc1cc(Cl)c(C(C)NC(=O)c2cccc(OC)c2)cc1OCC (configuration not stated)
6.19 | Oc1ccccc1CN1CCC2(CCCN(Cc3ccccc3F)C2)C1 (configuration not stated)
6.20 | COc1ccc(CN2CCCC(C(=O)c3ccc(C(F)(F)F)cc3)C2)c(O)c1 (configuration not stated)
6.26 | CCC(C)NCC(O)(c1ccc(Cl)cc1)c1ccc(Cl)cc1 (configuration not stated)
6.28 | CCOC(=O)C1=C(C)N=c2sc(=Cc3cc(Cl)ccc3O)c(=O)n2C1c1ccc(OC)cc1 (configuration not stated)
6.29 | COc1ccc(-c2nc(NC(=O)CS(=O)(=O)c3ccc(F)cc3)sc2C)cc1
6.30 | CC(NCc1ccccc1)c1cc(Cl)ccc1O (configuration not stated)
6.37 | O=C(NC(c1ccccc1)c1ccc2cccnc2c1O)c1ccccc1 (configuration not stated)
6.43 | CCN(CC)CCNc1ncnc2c1[nH]c1ccc(Cl)cc12
6.47 | CCC(c1ccccc1)c1nn2c(-c3cccs3)nnc2s1 (configuration not stated)
6.52 | COc1ccc(-c2c(C)nn3c(N)c(C#N)cnc23)cc1OC
6.58 | CC1(c2ccccc2)Nc2ccccc2-c2nc3ccccc3n21 (configuration not stated)
6.62 | O=[N+]([O-])c1ccc(C=NNc2nc3ccccc3[nH]2)cc1
6.62 | COc1ccc2c(c1)C1(Nc3ccccc3-c3nc4ccccc4n31)C(=O)N2 (configuration not stated)
6.70 | O=C(Nc1ccccc1O)c1ccc(Oc2cccc(C(=O)Nc3ccccc3O)c2)cc1
6.74 | CC(C)(C)c1ccc(O)c(CNC2CCCCC2)c1
6.90 | CCOC(=O)c1c(NC(=O)c2ccccc2)sc2c(O)c(CN(CC)CC)ccc12
